The record followed here is patent US20140100156A1 (SANOFI, priority 2012, published 2014).

Assay type in all cases: in vivo
A short description of assay [1]: Subchronic effect on body weight and body fat in female DIO C57BL/6NCrl mice. The settings on record: 4 weeks, mean. As for the experimental part:
(§1) Female C57BL/6NCrl mice were housed in groups in a specific pathogen-free barrier facility on a 12-h light/dark cycle with free access to water and high-fat diet. After 10 months on high-fat diet, mice were stratified to treatment groups (n=8), so that each group had similar mean body weight.
2) Subchronic effect on body weight: all animals were treated once daily s.c. in the morning, at the beginning of the light phase (12 h lights on) with either vehicle or exendin-4 derivatives at the abovementioned doses for 4 weeks. Body weight was recorded daily. On days 6 and 28, total fat mass was measured by nuclear magnetic resonance (NMR) using a Bruker minispec (Ettlingen, Germany).
(§2) Statistical analyses were performed with Everstat 6.0 by repeated measures two-way ANOVA and Dunnetts post-hoc analyses (glucose profile) and 1-way-ANOVA, followed by Dunnetts post-hoc test (body weight, body fat). Differences versus vehicle-treated DIO control mice were considered statistically significant at the p<0.05 level.
Female obese C57BL/6NCrl mice were treated for 4 weeks once daily subcutaneously in the morning, at the beginning of the light phase (12 h lights on) with 3, 10 or 100 μg/kg SEQ ID NO: 97 or vehicle. Body weight was recorded daily, and body fat content was determined before the start of treatment and after 4 weeks of treatment.

The test system of assay [2] is female diet-induced obese (DIO) C57BL/6NCrl mice. Nature of the assay: Acute effect on blood glucose in fed female diet-induced obese (DIO) C57BL/6NCrl mice.
Description: as §1
An aged-matched group with ad-libitum access to standard chow was included as standard control group.
Before the experiment, mice were subcutaneously (s.c.) injected with vehicle solution and weighed for 3 days to acclimate them to the procedures.
1) Acute effect on blood glucose in fed DIO mice: initial blood samples were taken just before first administration (s.c.) of vehicle (phosphate buffer solution) or the exendin-4 derivatives at doses of 3, 10, and 100 μg/kg (dissolved in phosphate puffer), respectively. The volume of administration was 5 mL/kg. The animals had access to water and their corresponding diet during the experiment, food consumption was determined at all time points of blood sampling. Blood glucose levels were measured at t=0.5 h, t=1 h, t=2 h, t=4 h, t=6 h, t=8 h, and t=24 h (method: d-glucose hexokinase, hemolysate, AU640 Beckman Coulter). Blood sampling was performed by tail incision without anaesthesia.
as §2
After blood sampling to determine the blood glucose baseline level, fed diet-induced obese female C57BL/6NCrI mice were administered 3, 10 or 100 μg/kg of SEQ ID NO: 97 or phosphate buffered solution (vehicle control on standard or high-fat diet) subcutaneously. At predefined time points, more blood samples were taken to measure blood glucose and generate the blood glucose profile over 24 h.

The subject of assay [3] is female NMRI-mice. In words: Gastric emptying and intestinal passage in mice. As for the experimental part: Female NMRI-mice of a body weight between 20 and 30 g were used. Mice were adapted to housing conditions for at least one week.
Mice were overnight fasted, while water remained available all the time. On the study day, mice were weighed, single-caged and allowed access to 500 mg of feed for 30 min, while water was removed. At the end of the 30 min feeding period, remaining feed was removed and weighed. 60 min later, a coloured, non-caloric bolus was instilled via gavage into the stomach. The test compound/reference compound or its vehicle in the control group was administered subcutaneously, to reach Cmax when coloured bolus was administered. After another 30 min, the animals were sacrificed and the stomach and the small intestine prepared. The filled stomach was weighed, emptied, carefully cleaned and dried and reweighed. The calculated stomach content indicated the degree of gastric emptying. The small intestine was straightened without force and measured in length. Then the distance from the gastric beginning of the gut to the tip of the farthest travelled intestinal content bolus was measured. The intestinal passage was given as relation in percent of the latter distance and the total length of the small intestine.
Statistical analyses were performed with Everstat 6.0 by 1-way-ANOVA, followed by Dunnetts or Newman-Keuls as post-hoc test, respectively. Differences were considered statistically significant at the p<0.05 level. As post hoc test Dunnet's Test was applied to compare versus vehicle control, only. Newman-Keul's Test was applied for all pairwise comparisons (i.e. versus vehicle and reference groups).
30 min later, the assessment of stomach contents and intestinal passage was done (FIG. 1a, b).
In another study, female NMRI-mice, weighing on average 25-30 g, were administered subcutaneously 0.02 and 0.002 mg/kg of SEQ ID NO: 97 or phosphate buffered saline (vehicle control), 30 min prior to the administration of the coloured bolus. 30 min later, the assessment of stomach contents and intestinal passage was done (FIG. 1c, d).

Assay [4] deals with female NMRI-mice. In words: Automated assessment of feed intake in mice. The note with it: 22 hours. The protocol: Female NMRI-mice of a body weight between 20 and 30 g were used. Mice were adapted to housing conditions for at least one week and for at least one day single-caged in the assessment equipment, when basal data were recorded simultaneously. On the study day, test product was administered subcutaneously close to the lights-off phase (12 h lights off) and assessment of feed consumption was directly started afterwards. Assessment included continued monitoring (every 30 min) over 22 hours. Repetition of this procedure over several days was possible. Restriction of assessment to 22 hours was for practical reasons to allow for reweighing of animals, refilling of feed and water and drug administration between procedures. Results could be assessed as cumulated data over 22 hours or differentiated to 30 min intervals.
Statistical analyses were performed with Everstat 6.0 by two-way ANOVA on repeated measures and Dunnetts post-hoc analyses. Differences were considered statistically significant at the p<0.05 level.
Fed female NMRI-mice, weighing on average 25-30 g, were administered 0.01 or 0.1 mg/kg of SEQ ID NO: 97 or phosphate buffered saline (vehicle control) subcutaneously, directly prior to start of feeding monitoring (time=0 h). Lights-off phase (dark phase) started 4 hours later.

Where [5] appears, read: 0.002 mg/kg s.c., versus PBS-control (second study).
[6] abbreviates: 0.02 mg/kg s.c., study with reference compound Liraglutide, versus vehicle.
The mark [7] stands for this setting: 0.02 mg/kg s.c., versus PBS-control (second study).

For the substance “SEQ ID NO: 97: exendin-4 derivative, K(γE-x53) in position 14 (HXQGTFTSDLSKQKDSRRAQDFIEWLKNGGPSSGAPPPS; K14 side chain γE-x53; Exendin-4-analogue)”, the Body fat change was -0.5 g in assay [1] (3 μg/kg s.c. once daily), -2.5 g in assay [1] (10 μg/kg s.c. once daily) and -2.4 g in assay [1] (100 μg/kg s.c. once daily). In addition, the values for the Overall weight change in assay [1] (3 μg/kg s.c. once daily), in assay [1] (10 μg/kg s.c. once daily) and in assay [1] (100 μg/kg s.c. once daily) were -0.9 g, -3.0 g and -2.3 g, respectively. Besides, the “duration of decrease in blood glucose compared to DIO control mice” value in assay [2] (high dose (100 μg/kg s.c.)) is listed as greater than 24 h; in assay [2] (low dose (3 μg/kg s.c.)) it was “at least 8 h”; in assay [2] (medium dose (10 μg/kg s.c.)) it was “at least 8 h”. Also, the entries for the “gastric content increased by” value in assay [3] (setting [5]), in assay [3] (setting [6]) and in assay [3] (setting [7]) were 47%, 90% and 37%, respectively. The “intestinal passage reduced by” value is 63% in assay [3] (setting [5]), 67% in assay [3] (setting [6]) and 43% in assay [3] (setting [7]). The “reduction of feed intake at the end of the study” value is 23% in assay [4] (0.01 mg/kg s.c.) and 66% in assay [4] (0.1 mg/kg s.c.).
